Test results published in patent publication EP4692083A1, “NOVEL AZABICYCLE DERIVATIVES AND PHARMACEUTICAL COMPOSITION FOR INHIBITING AUTOTAXIN, COMPRISING SAME” (Nextgen Bioscience Co., Ltd., priority 2023, dated 2024).

What follows are compounds tested against human Autotaxin protein (Homo sapiens, UniProt Q13822) (assay: Evaluation of the inhibitory activity against human Autotaxin protein (18:1 LysoPC substrate, choline assay kit, absorbance at 570 nm)). Conditions: at 500nM compound, 2 hours at 37 °C, read-out: Inhibition rate (%, at 500nM).
Assay type: biochemical
Description: Solutions of each synthesized compound (80 uM, 100% dimethyl sulfoxide) were sequentially diluted 5-fold with dimethyl sulfoxide to prepare 6 concentrations. Each concentration of the compound was diluted 2-fold with 1x test buffer (50 mM Tris-Cl (pH 8.0), 5 mM KCl, 1 mM CaCl2, 1 mM MgCl2, 140 mM NaCl, deionized water, 1 mg/mL BSA), and 1 uL (1.25% dimethylsulfoxide) of the diluted mixture was dispensed into each well of a 96-well clear round-bottom plate. 9 uL of 1x test buffer was added, and 20 uL of 240 nM human autotaxin protein (buffer: 50 mM Tris-HCl, pH 8.0, with 150 mM sodium chloride and 20% glycerol) was added. 10 uL of sonicated 360 uM 18:1 LysoPC (diluted with 1x assay buffer) was added. The reaction was performed for 2 hours in a shaking incubator at 37 °C, and a secondary reaction mixture (choline assay kit, KA1662) (65 uL of 1x assay buffer: 1 uL of choline oxidase: 1 uL of dye probe) was prepared. 60 uL of the secondary reaction mixture was added to the plate where the reaction was performed, and incubated for 30 minutes in a shaker. The absorbance value was measured at a wavelength of 570 nm using a SpectraMax iD3 microplate reader. The percentage inhibition activity value (% inhibition) was calculated by the formula: (1 - absorbance value test group / absorbance value control group) X 100.

| Compound | inhibition at 0.5 µM [%] |
| --- | --- |
| FC(F)(F)c1ccc(CCNc2ncc(-c3nnc(N4C[C@@H]5[C@H](C4)[C@H]5c4cnn[nH]4)o3)cn2)cc1 [Example 26, 5-(5-((1R,5S,6r)-6-(1H-1,2,3-Triazol-5-yl)-3-azabicyclo[3.1.0]hexan-3-yl)-1,3,4-oxadiazol-2-yl)-N-(4-(trifluoromethyl)phenethyl)pyrimidin-2-amine] | 98.4 |
| Brc1ccc(CCNc2ncc(-c3nnc(N4C[C@@H]5[C@H](C4)[C@H]5c4cnn[nH]4)o3)cn2)cc1 [Example 27, 5-(5-((1R,58,6r)-6-(1H-1,2,3-Triazol-5-yl)-3-azabicyclo[3.1.0]hexan-3-yl)-1,3,4-oxadiazol-2-yl)-N-(4-bromophenethyl)pyrimidin-2-amine] | 98.6 |
| Clc1ccccc1CCNc1ncc(-c2nnc(N3C[C@@H]4[C@H](C3)[C@H]4c3cnn[nH]3)o2)cn1 [Example 28, 5-(5-((1R,5S,6r)-6-(1H-1,2,3-Triazol-5-yl)-3-azabicyclo[3.1.0]hexan-3-yl)-1,3,4-oxadiazol-2-yl)-N-(2-chlorophenethyl)pyrimidin-2-amine] | 96.4 |
| Clc1cc(Cl)cc(CCNc2ncc(-c3nnc(N4C[C@@H]5[C@H](C4)[C@H]5c4cnn[nH]4)o3)cn2)c1 [Example 29, 5-(5-((1R,5S,6r)-6-(1H-1,2,3-Triazol-5-yl)-3-azabicyclo[3.1.0]hexan-3-yl)-1,3,4-oxadiazol-2-yl)-N-(3,5-dichlorophenethyl)pyrimidin-2-amine] | 97 |
| COc1ccc(CCNc2ncc(-c3nnc(N4C[C@@H]5[C@H](C4)[C@H]5c4cnn[nH]4)o3)cn2)cc1 [Example 30, 5-(5-((1R,5S,6r)-6-(1H-1,2,3-Triazol-5-yl)-3-azabicyclo[3.1.0]hexan-3-yl)-1,3,4-oxadiazol-2-yl)-N-(4-methoxyphenethyl)pyrimidin-2-amine] | 95.7 |
| Cc1ccc(CCNc2ncc(-c3nnc(N4C[C@@H]5[C@H](C4)[C@H]5c4cnn[nH]4)o3)cn2)cc1 [Example 31, 5-(5-((1R,5S,6r)-6-(1H-1,2,3-Triazol-5-yl)-3-azabicyclo[3.1.0]hexan-3-yl)-1,3,4-oxadiazol-2-yl)-N-(4-methylphenethyl)pyrimidin-2-amine] | 97 |
| c1ccc(CCNc2ncc(-c3nnc(N4C[C@@H]5[C@H](C4)[C@H]5c4cnn[nH]4)o3)cn2)nc1 [Example 32, 5-(5-((1R,5S,6r)-6-(1H-1,2,3-Triazol-5-yl)-3-azabicyclo[3.1.0]hexan-3-yl)-1,3,4-oxadiazol-2-yl)-N-(2-(pyridin-2-yl)ethyl)pyrimidin-2-amine] | 48.7 |
| N#Cc1ccc(CCNc2ncc(-c3nnc(N4C[C@@H]5[C@H](C4)[C@H]5c4cnn[nH]4)o3)cn2)cc1 [Example 33, 4-(2-((5-(5-((1R,5S,6r)-6-(1H-1,2,3-Triazol-5-yl)-3-azabicyclo[3.1.0]hexan-3-yl)-1,3,4-oxadiazol-2-yl)pyrimidin-2-yl)amino)ethyl)benzonitrile] | 93.7 |
| c1ccc2c(c1)CC[C@H]2Nc1ncc(-c2nnc(N3C[C@@H]4[C@H](C3)[C@H]4c3cnn[nH]3)o2)cn1 [Example 34, 5-(5-((1R,5S,6R)-6-(1H-1,2,3-Triazol-5-yl)-3-azabicyclo[3.1.0]hexan-3-yl)-1,3,4-oxadiazol-2-yl)-N-((R)-2,3-dihydro-1H-inden-1-yl)pyrimidin-2-amine] | 90.8 |
| c1ccc2c(c1)CC[C@@H]2Nc1ncc(-c2nnc(N3C[C@@H]4[C@H](C3)[C@H]4c3cnn[nH]3)o2)cn1 [Example 35, 5-(5-((1R,5S,6S)-6-(1H-1,2,3-Triazol-5-yl)-3-azabicyclo[3.1.0]hexan-3-yl)-1,3,4-oxadiazol-2-yl)-N-((S)-2,3-dihydro-1H-inden-1-yl)pyrimidin-2-amine] | 96.8 |
| c1ccc(Nc2ncc(-c3nnc(N4C[C@@H]5[C@H](C4)[C@H]5c4cnn[nH]4)o3)cn2)cc1 [Example 36, 5-(5-((1R,5S,6r)-6-(1H-1,2,3-Triazol-5-yl)-3-azabicyclo[3.1.0]hexan-3-yl)-1,3,4-oxadiazol-2-yl)-N-phenylpyrimidin-2-amine] | 65.2 |
| CN(CCc1ccc(Cl)cc1)c1ncc(-c2nnc(N3C[C@@H]4[C@H](C3)[C@H]4c3cnn[nH]3)o2)cn1 [Example 37, 5-(5-((1R,5S,6r)-6-(1H-1,2,3-Triazol-5-yl)-3-azabicyclo[3.1.0]hexan-3-yl)-1,3,4-oxadiazol-2-yl)-N-(4-chlorophenethyl)-N-methylpyrimidin-2-amine] | 91.7 |
| O=C(CCCc1nnc(NC2Cc3ccccc3C2)s1)N1C[C@@H]2[C@H](C1)[C@H]2c1cnn[nH]1 [Example 38, 1-((1R,5S,6r)-6-(1H-1,2,3-Triazol-5-yl)-3-azabicyclo[3.1.0]hexan-3-yl)-4-(5-((2,3-dihydro-1H-inden-2-yl)amino)-1,3,4-thiadiazol-2-yl)butan-1-one] | 25.5 |
| Cc1nc(NCCc2ccc(Cl)cc2)ncc1-c1nnc(N2C[C@@H]3[C@H](C2)[C@H]3c2cnn[nH]2)o1 [Example 40, 5-(5-((1R,5S,6r)-6-(1H-1,2,3-Triazol-5-yl)-3-azabicyclo[3.1.0]hexan-3-yl)-1,3,4-oxadiazol-2-yl)-N-(4-chlorophenethyl)-4-methylpyrimidin-2-amine] | 92.3 |
| O=C(/C=C/c1cnc(NC2Cc3ccccc3C2)nc1)N1C[C@@H]2[C@H](C1)[C@H]2c1cnn[nH]1 [Example 46, (E)-1-((1R,5S,6r)-6-(1H-1,2,3-Triazol-5-yl)-3-azabicyclo[3.1.0]hexan-3-yl)-3-(2-((2,3-dihydro-1H-inden-2-yl)amino)pyrimidin-5-yl)prop-2-en-1-one] | 99.4 |

Other lines, results leading:

| inhibition at 0.5 µM [%] | Compound |
| --- | --- |
| 59.7 | O=C(CCc1nnc(NC2Cc3ccccc3C2)s1)N1C[C@@H]2[C@H](C1)[C@H]2c1cnn[nH]1 [Example 39, 1-((1R,5S,6r)-6-(1H-1,2,3-Triazol-5-yl)-3-azabicyclo[3.1.0]hexan-3-yl)-3-(5-((2,3-dihydro-1H-inden-2-yl)amino)-1,3,4-thiadiazol-2-yl)propan-1-one] |
| 95.8 | Clc1ccc(CCNc2ccc(-c3nnc(N4C[C@@H]5[C@H](C4)[C@H]5c4cnn[nH]4)o3)cn2)cc1 [Example 41, 5-(5-((1R,5S,6r)-6-(1H-1,2,3-Triazol-5-yl)-3-azabicyclo[3.1.0]hexan-3-yl)-1,3,4-oxadiazol-2-yl)-N-(4-chlorophenethyl)pyridin-2-amine] |
| 68.4 | Clc1ccc(CCNc2cnc(-c3nnc(N4C[C@@H]5[C@H](C4)[C@H]5c4cnn[nH]4)o3)cn2)cc1 [Example 42, 5-(5-((1R,5S,6r)-6-(1H-1,2,3-Triazol-5-yl)-3-azabicyclo[3.1.0]hexan-3-yl)-1,3,4-oxadiazol-2-yl)-N-(4-chlorophenethyl)pyrazin-2-amine] |
| 84.8 | O=C(CCc1cnc(NCCc2ccc(Cl)cc2)nc1)N1C[C@@H]2[C@H](C1)[C@H]2c1cnn[nH]1 [Example 43, 1-((1R,5S,6r)-6-(1H-1,2,3-Triazol-5-yl)-3-azabicyclo[3.1.0]hexan-3-yl)-3-(2-((4-chlorophenethyl)amino)pyrimidin-5-yl)propan-1-one] |
| 58.6 | O=C(CCCc1cnc(NCc2cc(Cl)cc(Cl)c2)nc1)N1C[C@@H]2[C@H](C1)[C@H]2c1cnn[nH]1 [Example 44, 1-((1R,5S,6r)-6-(1H-1,2,3-Triazol-5-yl)-3-azabicyclo[3.1.0]hexan-3-yl)-4-(2-((3,5-dichlorobenzyl)amino)pyrimidin-5-yl)butan-1-one] |
| 98.7 | O=C(/C=C/c1cnc(NCCc2ccc(Cl)cc2)nc1)N1C[C@@H]2[C@H](C1)[C@H]2c1cnn[nH]1 [Example 45, (E)-1-((1R,5S,6r)-6-(1H-1,2,3-Triazol-5-yl)-3-azabicyclo[3.1.0]hexan-3-yl)-3-(2-((4-chlorophenethyl)amino)pyrimidin-5-yl)prop-2-en-1-one] |
| 13.9 | Cn1nncc1[C@H]1[C@@H]2CN(c3nnc(-c4cnc(NCCc5ccc(Cl)cc5)nc4)o3)C[C@@H]21 [Example 47, N-(4-Chlorophenethyl)-5-(5-((1R,5S,6r)-6-(1-methyl-1H-1,2,3-triazol-5-yl)-3-azabicyclo[3.1.0]hexan-3-yl)-1,3,4-oxadiazol-2-yl)pyrimidin-2-amine] |
| 34.7 | Cc1nn[nH]c1[C@H]1[C@@H]2CN(c3nnc(-c4cnc(NCCc5ccc(Cl)cc5)nc4)o3)C[C@@H]21 [Example 48, N-(4-Chlorophenethyl)-5-(5-((1R,5S,6r)-6-(4-methyl-1H-1,2,3-triazol-5-yl)-3-azabicyclo[3.1.0]hexan-3-yl)-1,3,4-oxadiazol-2-yl)pyrimidin-2-amine] |
| 76.4 | Clc1ccc(CCNc2ncc(C3CC(N4C[C@@H]5[C@H](C4)[C@H]5c4cnn[nH]4)=NO3)cn2)cc1 (stereo partly drawn) [Example 49, 5-(3-((1R,5S,6r)-6-(1H-1,2,3-Triazol-5-yl)-3-azabicyclo[3.1.0]hexan-3-yl)-4,5-dihydroisoxazol-5-yl)-N-(4-chlorophenethyl)pyrimidin-2-amine] |
| 95.5 | c1ccc2c(c1)CC(Nc1ncc(C3CC(N4C[C@@H]5[C@H](C4)[C@H]5c4cnn[nH]4)=NO3)cn1)C2 (stereo partly drawn) [Example 50, 5-(3-((1R,5S,6r)-6-(1H-1,2,3-Triazol-5-yl)-3-azabicyclo[3.1.0]hexan-3-yl)-4,5-dihydroisoxazol-5-yl)-N-(2,3-dihydro-1H-inden-2-yl)pyrimidin-2-amine] |
